In publication PMC7539012, “Hyperphosphorylated tau aggregation and cytotoxicity modulators screen identified prescription drugs linked to Alzheimer's disease and cognitive functions” (Scientific Reports, 2020):
pEC50: −log10 of the molar value. Where a name gives a salt, the structure may show the parent alone.

What was measured:
1N4R p-tau = system: T1, 1N4R p-tau; assay: p-tau aggregation modulator screen of 1280-compound library (ThS fluorescence net change over 16 h); format: biochemical; design: key to PTAI>3SD: *: PTAI>3SD
T1 construct: made in house; host or cells: E. coli (PIMAX system)

p-tau = target: T2, p-tau (Homo sapiens, UniProt P10636); assay: p-tau aggregation assay, dose response (ThS fluorescence, inducer-free); format: biochemical; conditions: 6 µM p-tau, ThS fluorescence
T2 construct: made in house; host or cells: E. coli (PIMAX system)
Protocol: Aggregation of 6-µM p-tau under the influence of 30 µM of each of the library compounds or a DMSO vehicle control was monitored in 384-well plates every 10 min for ThS fluorescence changes over 16 h. To assess the quality of the high-throughput p-tau aggregation reactions, we used the T0 and T16hr ThS fluorescence units of no-compound control reactions to calculate the Z′-factor and coefficient of variation (CV), two commonly used criteria for robustness of high-throughput screens (HTS)[62]. A Z′-factor greater than 0.5 and CV smaller than 10% indicate robustness. […] To identify compounds with significant p-tau aggregation modulation, the net change of ThS fluorescence was calculated from all reactions (see Supplemental Table 1 for complete listing).
Aggregation of 6 µM of p-tau was done in the presence of the indicated concentrations of either compound. […] P-tau aggregation reactions with the C291S C322S (C/S) mutant p-tau were done in the presence of the indicated amounts of either compound. Shown are net changes of ThS over 16 h.
Given the tremendous socioeconomical burdens of AD, measures that prevent or delay the onset of the devastating neurodegeneration of AD will be highly impactful. If hyperphosphorylated tau-inflicted neuronal damages are an underpinning for AD and other tauopathies, enhancers of p-tau aggregation (PTAEs) may be risk factors for neurodegeneration. […] Prednicarbate is a synthetic corticosteroid for dermatological use, and carmofur (1-hexylcarbamoyl-5-fluorouracil) is an anti-neoplastic pyrimidine analogue. […] BZDs are among the most widely prescribed medication, in particular to the elderly, for depression and insomnia[70],[71]. We hypothesized that certain BZDs acted as a PTAE to potentiate p-tau aggregation and cytotoxicity. […] We therefore randomly picked nine prescription BZDs for p-tau aggregation assessment (Fig. 6; see Supplemental Fig. 5 for chemical structures). To 6-µM p-tau aggregation reactions, increasing doses of each of these BZDs were added.
Prednicarbate, a synthetic steroid, served as a PTAE control (yellow bars).
The aggregation assays over the course of this project have been done with multi-plate readers from different sources.
A common mix of 6 µM p-tau, 20 mM Tris pH 7.4, 1 mM DTT, and 20 µM ThS was assembled and dispensed to 384-well low-volume plates (10 µl per well) using BioTek EL406 Washer, followed by the addition of 150 nl of the Prestwick Library compounds (final concentration of 30 µM per well) or DMSO in a Beckman Coulter Biomek FX^P workstation. Each plate was covered with an Optical Adhesive Film and incubated at 37 °C for about 10 min. ThS fluorescence was measured every 10 min at 440/490 nm for 16 h by Biotek Synergy Neo Plate Reader. […] The real-time kinetics of ThS signals were collected using Gen5 software.

[1] = design: method as in PMID 29401722; conditions: cited from earlier work
3xTg mice = conditions: cited from earlier work
SH-SY5Y cells = assay: cells; conditions: Homo sapiens, SH-SY5Y, read-out: EC50, concentration of compound to reduce p-tau cytotoxicity by 50%, SH-SY5Y, 0.8 µM p-tau
Protocol: (see below). […] PI is excluded by living cells, but diffuses into dead cells where it binds nucleic acid and emits fluorescence. FDA/PI differential staining thus provides a quantitative assessment of cellular viability. The blue curves in Fig. 4a,b depict the cellular viability after treatment with 0–0.8 µM of p-tau.
P-tau (without pre-aggregation) and compounds were added together to cells. Cell viability was quantified by FDA and PI differential staining 24 h later. […] Cellular viability was characterized as above and plotted against the compound concentration. Trend lines in panels (a)–(c) were obtained with the dose response curve fitting function of the software Origin (Origin Pro 8, OriginLab Corporation, Northampton, MA, USA). (d) Representative images of apoptotic cells after treatment of p-tau. SH-SY5Y cells were treated with 0.6 µM of p-tau for 12 h before harvesting for annexin V and PI staining. […] The percentage of apoptotic SH-SY5Y cells was quantified by annexin V and PI double staining of cells receiving 12 h of the indicated treatment under each column in the graph. Error bars are standard deviations; n = 3.
SH-SY5Y cells were treated with 0–0.6 µM of p-tau in conjunction with varying doses of nitrazepam, prazepam or devazepide. […] The red dotted lines indicate 50% viability. Curve fitting was done with the dose–response fitting function of the software Origin (version 8, OriginLab Inc.). The number in parentheses represents the concentration (in µM) of the indicated compound.
(§1) Cell viability assays were tested according to reference[60] with modifications. PTAIs were typically added to cells along with (Fig. 4) or after p-tau was added to cells (Fig. 5). For PTAEs, 10 × concentration of p-tau and the test compounds were assembled for pre-aggregation (without heparin or ThS) for 48 h before adding 10 µl to 100 µl of cells in 96-well plates. Twenty-four or 48 h after the addition of protein/compound, cells were trypsinized and transferred to microcentrifuge tubes, and pelleted at 1000 × g for 5 min at room temperature for FDA, PI, annexin V, and ThS staining. For PI/ThS double staining, cell pellets were resuspended in 20 mM Tris, pH7.4 buffer and incubated with 100 µM ThS for 5 min at room temperature. 5-µg/ml propidium iodide was then added to cell suspension for observation under a microscope.
Supplemental Figure 2. […] SH-SY5Y cells were treated with the indicated concentrations p-tau and compounds (in µM) for 20 hours before FDA/PI differential staining and microscopic quantification. […] 0.2 or 0.4 µM of p-tau and 30 µM of each compound were pre-incubated in aggregation reactions for 24 hours before the 20-hr cell treatment and cytotoxicity quantification. FDA and PI dual staining was performed to measure cellular viability. SH-SY5Y cells Compounds in panel (a) were added to cells along with p-tau without pre-incubation.

[2] = design: method as in PMID 21071476; conditions: cited from earlier work
HEK293T cells = assay: intracellular fibril buildup and cell death after p-tau, ThS/PI double staining; format: cell-based; conditions: 15 µM compound added 24 h after p-tau
Protocol: Cells were harvested for ThS/PI staining after additional 24 or 48 h. ThS staining helped visualize intracellular fibrils. In this experiment, we used HEK293T cells to avoid potential interference from the endogenous tau. […] To gain a quantitative assessment, the numbers of the four possible combinations of ThS/PI staining were tallied.
(a) Experimental design. […] These images were from T24hr time point in panel (a) with 0.5 µM p-tau treatment. (c) Quantification of ThS and PI stainability among cells. Cells were categorized based on one of the four ThS/PI double-staining patterns. The total number of cells captured microscopically under each treatment was used as the denominator for the calculation of the proportion of each staining pattern, and expressed in this stacked column chart.
as §1

[3] = system: C291S C322S (C/S) and C291A C322A (C/A) mutant p-tau; assay: aggregation of C/S or C/A mutant p-tau (ThS net change); format: biochemical; conditions: increasing doses of compound
Protocol: Figure 3 R-(−)-apomorphine and raloxifene are p-tau aggregation inhibitors (PTAIs) that act independently of the redox state of p-tau. (a) and (b) P-tau aggregation inhibition dose response curves of R-(−)-apomorphine and raloxifene. Aggregation of 6 µM of p-tau was done in the presence of the indicated concentrations of either compound. (c) Both R-(−)-apomorphine and raloxifene act independently of the two cysteine residues of p-tau. P-tau aggregation reactions with the C291S C322S (C/S) mutant p-tau were done in the presence of the indicated amounts of either compound. Shown are net changes of ThS over 16 h.
Many “hits” from prior tau-based HTS were non-selective redox modulators, due most likely to the susceptibility of unmodified tau fibrils to the oxidation of two cysteine residues of tau, C291 and C322. Because p-tau aggregation was not affected by changing the two cysteine residues to alanine or serine, we suspected that R-(−)-apomorphine and raloxifene would act independently of these two cysteine. […] By itself, the C/S p-tau gained 130 units of ThS fluorescence over the course of the aggregation reaction (blue column). With increasing doses of either compound, the net gain of ThS fluorescence decreased progressively. […]

T2 sequence (P10636 1-412 isoform P10636-7): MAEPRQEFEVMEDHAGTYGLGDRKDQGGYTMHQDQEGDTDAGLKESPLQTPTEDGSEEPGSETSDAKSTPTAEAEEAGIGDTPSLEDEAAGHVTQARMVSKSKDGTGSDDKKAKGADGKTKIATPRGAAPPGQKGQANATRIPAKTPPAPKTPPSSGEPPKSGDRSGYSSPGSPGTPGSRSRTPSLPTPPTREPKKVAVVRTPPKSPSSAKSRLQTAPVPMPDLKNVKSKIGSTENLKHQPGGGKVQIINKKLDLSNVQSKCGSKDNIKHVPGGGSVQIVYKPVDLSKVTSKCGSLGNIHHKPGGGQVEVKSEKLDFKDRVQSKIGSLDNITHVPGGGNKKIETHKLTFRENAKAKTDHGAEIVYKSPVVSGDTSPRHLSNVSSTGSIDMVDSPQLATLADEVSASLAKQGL

| Compound | PTAI>3SD (1N4R p-tau; flag: p-tau aggregation inhibitor, ThS net change more than 3 SD from mean) | ThS net change (1N4R p-tau; library screen, ThS fluorescence net change over 16 h with p-tau) | pEC50 (p-tau) | bioavailability [1] | memory in 3xTg mice (3xTg mice) | pEC50 (SH-SY5Y cells) | blood brain barrier passage [2] | live cells with cytoplasmic ThS fluorescence (HEK293T cells; 48-h samples) [%] | PI (+) ThS (+) cells (HEK293T cells; harvested after additional 24 h) [%] | PI (+) ThS (+) cells (HEK293T cells; harvested after additional 48 h) [%] | aggregation of C/A or C/S mutant p-tau [3] |
| --- | --- | --- | --- | --- | --- | --- | --- | --- | --- | --- | --- |
| COC1=C(OC)C(=O)C(CCCCCCCCCCO)=C(C)C1=O [Idebenone, idebenone] | * | -1 | 4.98 | very low bioavailability |  |  |  |  |  |  |  |
| CN1CCc2cccc3c2[C@H]1Cc1ccc(O)c(O)c1-3 [Apomorphine, R-(−)-apomorphine hydrochloride] |  |  | 4.74 |  | memory improvement | 5.54 | can pass the blood brain barrier | 26 | 61 | 44 | effectively inhibited |
